Patent publication US20160083424A1, “COMPOSITIONS AND METHODS FOR TARGETING ANTIGEN-PRESENTING CELLS” (OSLO UNIVERSITETSSYKEHUS HF, priority 2013, published 2016)
Read-outs that look alike come from different tables or passages of the source. Where no end group is shown, it is not given here.

Columns and labels:
B cells [1] = experiment: Phage binding by flow cytometry; parameters: species or system human
Protocol: (§1) In brief, aliquots of DCs (10^5) were divided into conical 96-well micro-plate, washed with PBS buffer containing 1% FCS, and then incubated with the amplified phages (≈10^9 TU) for 30-60 min on ice. After washing, cells were incubated with biotinylated anti-M13 monoclonal antibody (Abcam) and then with phycoerythrin (PE)-conjugated streptavidin. Competition assays were performed by pre-incubating DCs with different amounts of the peptides for 15 min on ice. Then NW phage (≈10^9 TU) was added and samples incubated for additional 60 min on ice. After washing, bound phages were detected as indicated above. Samples were analyzed by FACSCanto II flow cytometry.

Blood myeloid DCs [2] = experiment: Phage binding by flow cytometry; parameters: species or system human
Protocol: as §1

Blood pDCs [3] = experiment: Phage binding by flow cytometry; parameters: species or system human
Protocol: as §1

[4] = tested on: Cancer cell lines (MCF-7, MDA-MB 231, SW480, REH); experiment: Phage binding by flow cytometry; parameters: species or system human; details: all tested cancer cell lines
Protocol: as §1

Monocytes [5] = experiment: Phage binding by flow cytometry; parameters: species or system human
Protocol: as §1

NK cells [6] = experiment: Phage binding by flow cytometry; parameters: species or system human
Protocol: as §1

T cells [7] = experiment: Phage binding by flow cytometry; parameters: species or system human
Protocol: as §1

iDCs [8] = experiment: Phage binding by flow cytometry; parameters: species or system human
Protocol: as §1

mDCs [9] = experiment: Phage binding by flow cytometry; parameters: species or system human
Protocol: as §1

THP-1 = experiment: Phage binding by flow cytometry; details: human monocyte cell line THP-1
Protocol: as §1

DCs = experiment: Fluorescence microscopy analysis of phage binding and internalization; type: cell-based, human; details: 37° C. for 90 min
Protocol: DCs were incubated with biotinylated phages at 4° C. for 30 min. After washing, the cells were incubated with streptavidin-PE. […] Hoechst 33342 dye was added to the cells for 5 min and then the cells were washed, fixed with 4% paraformaldehyde, and covered with Dako cytomation fluorescent mounting medium and analyzed with epifluorescence microscopy. Confocal images were obtained using an AxioVert 200 microscope (Carl Zeiss, Jena, Germany).

B cells [10] = experiment: Peptide binding by flow cytometry; parameters: species or system human
Protocol: (§2) The cells were seeded onto 24-well plate (3×10^5/well/0.5 ml) in X-vivo 15 medium and incubated overnight at 37° C. Subsequently, they were incubated with 6IAF-conjugated peptides (5 μg/ml) for 30 min at 37° C., gently scraped, washed 3 times and then analyzed by flow cytometry. Binding was also performed at 4° C.

Blood myeloid DCs [11] = experiment: Peptide binding by flow cytometry; parameters: species or system human
Protocol: as §2

Blood pDCs [12] = experiment: Peptide binding by flow cytometry; parameters: species or system human
Protocol: as §2

Monocytes [13] = experiment: Peptide binding by flow cytometry; parameters: species or system human; details: compared with dendritic cells
Protocol: as §2

NK cells [14] = experiment: Peptide binding by flow cytometry; parameters: species or system human
Protocol: as §2

T cells [15] = experiment: Peptide binding by flow cytometry; parameters: species or system human
Protocol: as §2

iDCs [16] = experiment: Peptide binding by flow cytometry; parameters: species or system human; details: 4° C. and 37° C.
Protocol: as §2

iDC = experiment: Competition of NW phage binding by synthetic peptides; parameters: species or system human
Protocol: as §1
To further investigate the importance of the NW peptide on phage binding, competition experiments were performed using synthetic peptides.

Monocytes [17] = experiment: Competition of NW phage binding by NW peptide and its mutant peptides; parameters: species or system human
Protocol: as §1
To uncover the contribution of individual side chains and identify which amino acids are responsible for the NW peptide binding to monocytes and dendritic cells, alanine scanning was performed. Derivatives of the NW peptide were synthesized with exchange of each amino acid by alanine (FIG. 11A). These peptide derivatives were used to compete with the NW phage binding to monocytes. For each peptide, four concentrations were tested. Bound phage particles were detected with the use of biotin conjugated anti-M13 antibody and PE-conjugated streptavidin. The NW peptide (WT) competed effectively with the phage binding to monocytes with an IC50 of approximately 0.5 uM. The replacement of tryptophan (W) at position 2, 6, or 12 by a single alanine abolished the binding. Indeed, no significant competition with the phage binding was seen even at high peptide concentrations (C4=20 uM). Similarly, replacement of leucine (L) at position 4 or 7 by alanine inhibited the peptide binding (FIG. 11B).

iDCs [18] = experiment: Peptide binding and internalization by fluorescence microscopy; type: cell-based, human
Protocol: Then the medium was replaced with fresh medium and the cells were incubated with the peptides (5 μg/ml) for 60 min at 37° C. followed by 5 min incubation with Hoechst 33342 (Invitrogen Dynal AS, Oslo, Norway). The cells were washed twice with PBS and fixed with 4% paraformaldehyde for 15 min at 4° C. After washing, slides were covered with Dako cytomation fluorescent mounting medium and then images were taken with either epifluorescence (Leica DM RHC, Leica Microscopy As, Oslo, Norway) or confocal microscopy (Zeiss LSM 510, […]).

mDC = experiment: Phenotypic analysis of DCs after peptide incubation; type: cell-based, human; details: mDC incubated with peptide (15 μM) for 48 h, flow cytometry
Protocol: Phenotype of DCs was analyzed by direct immunofluorescence staining of cell surface antigens using FITC or PE conjugated antibodies against CD80, CD83, CD86, HLA-DR, CCR7, CD40, and isotype controls. All antibodies were purchased from Dako (Glostrup, Denmark) or BD Biosciences (San Diego, Calif., USA). After staining on ice for 30 min, samples were washed twice and then analyzed by FACSCantoII flow cytometry
(§3) With respect to cancer immunotherapy and active immunization against infectious diseases, targeting moieties should not have a negative impact on DC immunogenic function. To investigate whether the NW peptide can modulate DC phenotype and function, mDC were incubated with the peptide for 48 h and subsequently the expression of CD80, CD83, CD86, and HLADR molecules were analyzed by flow cytometry. […] The ability of mDCs to stimulate T-cell proliferation was assessed in a mixed leukocyte reaction (MLR), a hallmark of DC function. […] The NW-peptide had no major negative effects on DC phenotype and function.

mDCs [19] = experiment: Mixed leukocyte reaction (MLR); type: cell-based, human; details: peptide-treated vs untreated mDCs
Protocol: as §3

human Gal-3 = experiment: Gene silencing by peptide-siRNA conjugates, Western blot; type: cell-based; details: iDCs, 48 h incubation
Protocol: Immature DCs were seeded in a 6-well plate at a density of 10^6 cells per well and incubated for 24 h prior to transfection. Then the medium was replaced by fresh X-vivo 15 medium (2 ml/well) containing peptide-siRNA conjugates or free siRNAs. Cells were harvested 48 h after addition of the test molecules and monitored for gene expression by Western blots.
Cells were resuspended in protein extraction buffer (PBS+1% NP-40) supplemented with protease inhibitor cocktail (Sigma-Aldrich Norge, Oslo, Norway) and incubated for 30 min on ice. After centrifugation, the supernatant were collected and protein contents were determined using Bio-Rad protein assay. Equal amounts of protein were resolved by electrophoresis on a 10% sodium dodecyl sulfate (SDS)-polyacrylamide gel and electrotransferred to nitrocellulose membrane. After blocking in 5% milk in TBS-Tween (1%) for 60 min, membranes were probed with primary antibodies against Gal-3 and HRP-conjugated secondary antibody. Immunoreactive proteins were detected using the enhanced chemiluminescence system. To control for protein loading, membranes were stripped and then incubated with β-actin monoclonal antibody.
Because siRNA molecules must be released into the cytoplasm in order to function (Elbashir et al., (2001) Nature 411, 494-498), the data further confirm the internalization of the peptide after binding to DCs.

iDCs [20] = tested on: iDCs
Protocol: Commercially available streptavidin-PE (1/200) was incubated with biotinylated NW peptide or control peptide (1 μg/ml) for 30 min at RT. Then the mixtures were added to DCs growing in Lab-Tek chamber slides (Nalge Nunc International, Naperville, USA) and incubated for 60 min at 4° C. The cells were washed 3 times with medium and incubated at 37° C. for 90 min to allow internalization of bound streptavidin-PE. To visualize the nuclei, Hoechst 33342 (Invitrogen Dynal AS, Oslo, Norway) was added to the cells for 5 min. Subsequently, the cells were fixed with 4% paraformaldehyde, washed and slides were covered with Dako cytomation fluorescent mounting medium followed by epifluorescence microscopy analysis. Confocal images were taken with an AxioVert 200 microscope (Carl Zeiss, Jena, Germany).
The use of the NW peptide to target antigens to DCs was assessed by examining its ability to promote the binding and uptake of streptavidin-PE complexes. For these experiments, streptavidin-PE was pre-incubated with either biotin conjugated NW peptide or biotin conjugated control peptide and then the mixtures were added to iDCs growing in Lab-Tek chamber slides, incubated at 4° C., washed and then transferred at 37° C.

Monocytes [21] = details: biotin labeled peptide (10 μg), Dynabeads M-280 streptavidin, flow cytometry
Protocol: In these experiments, peripheral blood mononuclear cells were isolated from buffy coats of healthy donors by density gradient centrifugation. […] Subsequently, the cells were washed with the binding buffer to remove unbound peptide and then they were suspended in 100 μl binding buffer. Subsequently, pre-washed Dynabeads M-280 streptavidin (20 μl) were added and the mixtures were incubated for 15 min at room temperature with agitation. After, the mixtures were placed in the separation magnet, during which time the beads and any attached cells are drawn to one side of the tube. Non-attached cells were carefully aspirated off and analyzed by flow cytometry to check the removal of the monocyte fraction (FIG. 15).

[22] = target: NW peptide receptor (human); experiment: competition with NW phage binding to monocytes, flow cytometry
[23] = target: NW peptide receptor (human); experiment: competition with NW phage on monocytes, flow cytometry
[24] = target: NW peptide receptor (human); experiment: competition with NW phage on monocytes, flow cytometry; C3 = 8 µM peptide

## NWYLPWLGTNDW [DC2]
B cells [1]
  phage binding: did not bind
Blood myeloid DCs [2]; Blood myeloid DCs
  Phage Binding: ++++ (Binding >80-100%: ++++)
Blood myeloid DCs [2]; blood CD1c+ myeloid DCs
  phage binding: bound
Blood pDCs [3]; Blood pDCs
  Phage Binding: ++++ (Binding >80-100%: ++++)
Blood pDCs [3]; CD303+ plasmacytoid DCs
  phage binding: bound
[4]
  phage binding: did not bind
Monocytes [5]
  Phage Binding: ++++ (Binding >80-100%: ++++)
  phage binding: strong binding
NK cells [6]
  phage binding: did not bind
T cells [7]
  phage binding: did not bind
iDCs [8]; Trypsine treatment of DCs, data not shown
  phage binding after trypsine treatment of DCs: eliminated phage binding
iDCs [8]; binding of the phage clones to iDC, flow cytometry
  Binding: ++++ (Binding >80-100%: ++++)
iDCs [8]; iDC
  phage binding: strong binding
iDCs [8]; iDCs
  Phage Binding: ++++ (Binding >80-100%: ++++)
mDCs [9]
  Phage Binding: ++++ (Binding >80-100%: ++++)
  phage binding: strong binding
THP-1
  phage binding: did not bind
DCs
  internalization of the phage particles into DCs: able to mediate the internalization of the phage particles into DCs

## NWYLPWLGTNDWC [NW peptide, NWYLPWLGTNDWC]
B cells [10]
  peptide binding: did not bind
Blood myeloid DCs [11]; Blood myeloid DCs
  peptide binding: ++++ (Binding >80-100%: ++++)
Blood myeloid DCs [11]; blood CD1c+ myeloid DCs
  peptide binding: bound efficiently
Blood myeloid DCs [11]; blood CD1c+ myeloid DCs, listed as synthetic peptide
  peptide binding: bound
Blood pDCs [12]; Blood pDCs
  peptide binding: ++++ (Binding >80-100%: ++++)
Blood pDCs [12]; CD303+ plasmacytoid DCs
  peptide binding: bound efficiently
Blood pDCs [12]; CD303+ plasmacytoid DCs, listed as synthetic peptide
  peptide binding: bound
Monocytes [13]
  peptide binding: bound as strongly to monocytes as to dendritic cells
NK cells [14]
  peptide binding: did not bind
T cells [15]
  peptide binding: did not bind
iDCs [16]
  binding of 6-IAF-conjugated peptides to iDCs: strong binding both at 4 °C and 37 °C
iDC
  inhibition of the phage binding to iDC by synthetic peptides: effectively inhibited the phage binding to iDC in a concentration-dependent manner
Monocytes [17]; dose-dependent inhibition, peptide concentrations 0.4, 2, 8, and 20 μM, read-out: inhibition of the NW phage binding, IC50
  IC50: 500 nM
Monocytes [17]; monocytes, read-out: competition with the phage binding to monocytes, IC50
  IC50: ~500 nM
iDCs [18]; 6-IAF-conjugated peptide
  cell staining by epifluorescence microscopy: strong cell staining
iDCs [18]; 37° C.
  internalization by iDCs (confocal microscopy): efficiently internalized by iDCs
mDC
  expression of CD80, CD83, CD86, and HLADR molecules: None of the analyzed markers were significantly affected
mDCs [19]
  T-cell proliferation in MLR: comparable T-cell proliferation
Human Gal-3
  Gal-3 gene silencing: did not induce any detectable gene silencing

## NWYLPWLGTNDWGGGK-Biotin [NW-Biotin peptide]
iDCs [20]; biotinylated peptide pre-incubated with streptavidin-PE, 4° C.
  binding of streptavidin-PE complexes to DCs: mediated the binding of streptavidin-PE complexes to DCs
iDCs [20]; confocal microscopy, after transfer to 37° C.
  internalization of streptavidin-PE: clear internalization and cellular localization of streptavidin-PE molecules
Monocytes [21]
  removal of the monocyte fraction from PBMC: most, if not all monocyte population were removed

B1: NW peptide (peptide)
peptide: NWYLPWLGTNDWC
modifications: also: carries 6-iodoacetamidofluorescein in direct binding assays
[22]
  IC50: 500 nM

B2: NW peptide with deletion of N10D11 (peptide)
peptide: NWYLPWLGTW
[23]
  fold reduction in IC50 against the NW peptide: 20 fold

B3: N10D11 double mutant (peptide)
peptide: NWYLPWLGTAAW
[24]
  mean fluorescence of bound NW phage at C3 concentration: 250
